In patent publication US6372493B1, “Hormone-secreting cells maintained in long-term culture” (Pacific Biomedical Research, Inc. [Cell Mart, Inc.], priority 1991, dated 2002):

How the values were obtained:
[1] = tested on: Ovarian follicular cells, lines 100B-OR-5A, 100B5-OR-B, 100B5-OR-D; assay: 8-Br-cAMP / FSH stimulation of progesterone secretion by cultured follicular cells; type: cell-based, human; details: 1 mM 8-Br-cAMP, 24 hours
Description: (§1) Cells in SC-2 were propagated and sub-cultured as above more than 20 times. […] Quantitative radioimmune assays (RIA) were employed as described in Radioassay Systems in Clinical Endocrinology, 1981, Ed. G. E. Abraham, {Basel: Marcel Dekker}, pp. 475-529. Progesterone, testosterone, estradiol, prolactin, thyroid stimulating hormone and luteinizing hormone were assayed by the Coat-a-Count procedure (Diagnostic Products Corp., Los Angeles).
Ovarian follicular cells, lines 100B-OR-5A, 100B5-OR-B, and 100B5-OR-D, were established in culture as described in Example 1 and maintained and sub-cultured as described in Example 2. From these lines were created sub-cultures designated 1, 2, and 3 respectively, which were employed in the stimulation protocol described below.

[2] = tested on: Human pancreas cells at passage generation 47; assay: Effect of amino acids on glucose stimulated insulin secretion (Example 20); type: cell-based; details: for insulin secretion, +10 mM alanine / insulin secretion, +20 mM arginine: 90 minutes
Description: Human pancreas cells at passage generation 47, were prepared for the experiment as described in Example 17 above. The cells were incubated in 6 parts PDM plus 1 part DMSS medium at a concentration of 10^5 cells/ml, at various concentrations of glucose. Alanine (10 mM) or arginine(20 mM) were added, and the cells were incubated for 90 minutes, at which time samples were collected for assay of insulin content.

human follicular cells = assay: Long-term hormone secretion of follicular sub-cultures with added testosterone substrate (Example 2); type: cell-based; parameters: dose or concentration left out as unconfirmed; details: testosterone added as substrate for steroid production
Description: as §1, with “Angeles). Follicle-stimulating hormone and B-hCG were assayed by the SERONO MATAclone procedure (Serono, Italy).” for “Angeles).”
Conclusions: Using this method, human follicular cells were propagated in culture and transferred to serial subcultures which continued to proliferate and to secrete hormones.

Nc1ncnc2c1nc(Br)n2[C@@H]1O[C@@H]2COP(=O)(O)O[C@H]2[C@H]1O [8-Br-cAMP]
Prog ([1]; culture 1): 24.5 ng/10^6 cells
Prog ([1]; culture 2): 12.9 ng/10^6 cells
Prog ([1]; culture 3): 20.8 ng/10^6 cells

C[C@H](N)C(=O)O [alanine, Alanine]
increase of insulin secretion over that stimulated by glucose alone ([2]; 10 mM alanine at 2 mM glucose): 1.25 fold
insulin secretion stimulated over the intermediate level of secretion ([2]; 10 mM alanine together with 1 mM glucose, 1.5 hours): approximately 1.13 fold
insulin secretion, +10 mM alanine ([2]; total 1 mM glucose): 103
insulin secretion, +10 mM alanine ([2]; total 2 mM glucose): 135
insulin secretion, +10 mM alanine ([2]; total 6 mM glucose): 127
insulin secretion, +10 mM alanine ([2]; total 11 mM glucose): 117
insulin secretion, +10 mM alanine ([2]; total 16 mM glucose): 101
insulin secretion, +10 mM alanine ([2]; total 22 mM glucose): 87

N=C(N)NCCC[C@H](N)C(=O)O [arginine]
insulin secretion, +20 mM arginine ([2]; total 1 mM glucose): 128
insulin secretion, +20 mM arginine ([2]; total 2 mM glucose): 134
insulin secretion, +20 mM arginine ([2]; total 6 mM glucose): 105
insulin secretion, +20 mM arginine ([2]; total 11 mM glucose): 93
insulin secretion, +20 mM arginine ([2]; total 16 mM glucose): 99
insulin secretion, +20 mM arginine ([2]; total 22 mM glucose): 94

C[C@]12CC[C@H]3[C@@H](CCC4=CC(=O)CC[C@@]43C)[C@@H]1CC[C@@H]2O [testosterone]
time subcultures continued to secrete hormones after first placed in culture (human follicular cells): ≤ 16 months
